The source of these data is patent publication US7026339B2, “Inhibitors of HCV NS5B polymerase” (priority 2003, dated 2006).

The IC50 is the concentration needed to halve the response being measured.

This assay has as its system HuH-7 replicon cells 5–15 and 9–13 (HCV replication). Put plainly: Inhibition of viral replication in HuH-7 replicon cells (HCV RNA / GAPDH RNA by multiplex RT-PCR). It counts as cell-based. The note with it: Hepatitis C virus, 72 h; inhibiting 50% of replication; HuH-7 replicon cells, 3 days; read-out: IC50. The procedure, abridged: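 Replicon cells seeded at 7×10^3 cells/well, grown 24 h, then exposed 3 days at 37 °C to compound at final 100 μM–1 μM (1% DMSO). Multiplex TaqMan RT-PCR on total RNA quantified HCV 5′-UTR and GAPDH RNA against a standard curve; HCV/GAPDH ratio reported as percent of untreated control.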
As to `Cc1cccc(S(=O)(=O)Oc2ccccc2/C=N/NC(=O)Cc2ccccc2)c1` [Compound 111, 2-{(E)-[2-(2-phenylacetyl)hydrazono]methyl}phenyl 3-methylbenzenesulfonate], the concentration for half-maximal inhibition (IC50) was greater than 50 µM.

For `O=C(Cc1c(F)ccc(F)c1F)N/N=C/c1ccccc1OS(=O)(=O)c1ccc(C(F)(F)F)cc1` [Compound 27, 2-((E)-{2-[2-(2,3,6-trifluorophenyl)acetyl]hydrazono}methyl)-phenyl 4-(trifluoromethyl)benzenesulfonate], the half-maximal inhibitory concentration (IC50) was less than 5 µM.

With `COc1cccc(CC(=O)N/N=C/c2cc(OC)ccc2OS(=O)(=O)c2ccc(C)cc2)c1` [Compound 156, 4-methoxy-2-((E)-{[(3-methoxyphenyl)acetyl]hydrazono}methyl)-phenyl 4-methylbenzenesulfonate], the IC50 was less than 5 µM.

Take `Cc1cccnc1C(=O)N/N=C/c1ccccc1OS(=O)(=O)c1ccc(C(F)(F)F)cc1` [Compound 93, 2-((E)-{2-[(3-methylpyridin-2-yl)carbonyl]hydrazono}methyl)phenyl 4-(trifluoromethyl)benzenesulfonate]: the 50% inhibitory concentration (IC50) is greater than 50 µM.

On to `Cc1ccc(S(=O)(=O)Oc2ccc(F)cc2/C=N/NC(=O)Cc2cccc(Cl)c2)cc1` [Compound 164, 2-((E)-{[(3-chlorophenyl)acetyl]-hydrazono}methyl)-4-fluorophenyl 4-methylbenzenesulfonate], for which the concentration for half-maximal inhibition (IC50) is less than 5 µM.

Consider `COc1cccc(CC(=O)N/N=C(\C)c2ccccc2OS(=O)(=O)c2ccc(C(F)(F)F)cc2)c1` [Compound 221, 2-{(1E)-N-[(3-methoxyphenyl)acetyl]ethanehydrazonoyl}-phenyl 4-(trifluoromethyl)benzenesulfonate], for which the concentration for half-maximal inhibition (IC50) is greater than 50 µM.

With `O=C(Cc1c(F)cccc1C(F)(F)F)N/N=C/c1ccccc1OS(=O)(=O)c1ccc(C(F)(F)F)cc1` [Compound 33, 2-[(E)-(2-{2-[2-fluoro-6-(trifluoromethyl)phenyl]acetyl}hydrazono)-methyl]phenyl 4-(trifluoromethyl)benzenesulfonate], the 50% inhibitory concentration (IC50) was less than 5 µM.

Take `COc1ccc(OC)c(S(=O)(=O)Oc2ccccc2/C=N/NC(=O)Cc2ccccc2)c1` [Compound 138, 2-{(E)-[2-(2-phenylacetyl)hydrazono]methyl}phenyl2,5-dimethoxybenzenesulfonate]: the IC50 is greater than 50 µM.

For the compound `COc1cccc(CC(=O)N/N=C/c2ccccc2OS(=O)(=O)c2ccc(OC)c(OC)c2)c1` [Compound 152, 2-((E)-{2-[2-(3-methoxyphenyl)acetyl]hydrazono}methyl)-phenyl 3,4-dimethoxybenzenesulfonate], the IC50 was less than 5 µM.

Consider `O=C(CCCc1ccccc1)N/N=C/c1ccccc1OS(=O)(=O)c1ccc(C(F)(F)F)cc1` [Compound 46, 2-{(E)-[2-(4-phenylbutanoyl)hydrazono]methyl}phenyl4-(trifluoromethyl)benzenesulfonate], for which the IC50 was 5 to 50 µM.

`O=C(Cc1ccccc1)N/N=C/c1ccccc1OS(=O)(=O)c1ccc(F)cc1F` [Compound 133, 2-{(E)-[2-(2-phenylacetyl)hydrazono]methyl}phenyl2,4-difluorobenzenesulfonate]: the IC50 was greater than 50 µM.

With `O=C(Cc1ccccc1SC(F)(F)F)N/N=C/c1ccccc1OS(=O)(=O)c1ccc(C(F)(F)F)cc1` [Compound 25, 2-{(E)-[2-(2-{2-[(trifluoromethyl)thio]-phenyl}acetyl)hydrazono]methyl}phenyl 4-(trifluoromethyl)benzenesulfonate], the half-maximal inhibitory concentration (IC50) is less than 5 µM.

Turning to `COc1cccc(CC(=O)N/N=C/c2ccccc2OS(=O)(=O)c2ccc(Oc3ccc(F)cc3)cc2)c1` [Compound 202, 2-((E)-{2-[2-(3-methoxyphenyl)acetyl]hydrazono}methyl)-phenyl 4-(4-fluorophenoxy)benzenesulfonate], the IC50 is greater than 50 µM.

With `COc1cccc(CC(=O)N/N=C/c2ccccc2OS(=O)(=O)c2ccc(C(F)(F)F)cc2)c1` [Compound 146, 2-((E)-{2-[2-(3-methoxyphenyl)acetyl]hydrazono}methyl)-phenyl 4-(trifluoromethyl)benzenesulfonate], the IC50 was less than 5 µM.
